Data from patent publication US6737383B1, “Herbicidal oxadiazolidines” (priority 1999, dated 2004).

Experiments:
dallisgrass = assay: Test D dallisgrass; assay type: in vivo, Paspalum dilatatum; settings: Postemergence, 0 to 100 scale
Johnson grass = assay: Test D Johnson grass; assay type: in vivo, Sorghum halepense; settings: Postemergence, 0 to 100 scale
Green foxtail = assay: Test D green foxtail; assay type: in vivo; settings: Rate 250 g/ha; Postemergence; 0 to 100 scale
purple nutsedge = assay: Test D purple nutsedge; assay type: in vivo, Cyperus rotundus; settings: Postemergence, 0 to 100 scale
common ragweed = assay: Test D common ragweed; assay type: in vivo, Ambrosia elatior; settings: Postemergence, 0 to 100 scale
[1] = Rate 16 g/ha, 0 no injury, 100 complete control
[2] = Rate 32 g/ha, 0 no injury, 100 complete control
[3] = Rate 64 g/ha, 0 no injury, 100 complete control
[4] = Rate 125 g/ha, 0 no injury, 100 complete control

`CC(C)N(C(=O)n1oc(=O)n(C2(C)CC2)c1=O)c1ccccc1` [Compound 360] was tested, and the “Plant response rating, Dallisgrass” value (dallisgrass; [1]) was 0, the “Plant response rating, Dallisgrass” value (dallisgrass; [2]) was 40 and the “Plant response rating, Dallisgrass” value (dallisgrass; [3]) was 100. For the same compound, the “Plant response rating, Dallisgrass” value (dallisgrass; [4]) was 100, the “Plant response rating, Dallisgrass” value (dallisgrass; Rate 250 g/ha) was 100 and the “Plant response rating Johnsongrass” value (Johnson grass; [1]) was 0. The “Plant response rating Johnsongrass” value (Johnson grass; [2]) was 0, the “Plant response rating Johnsongrass” value (Johnson grass; [3]) was 0 and the “Plant response rating Johnsongrass” value (Johnson grass; [4]) was 50. For the same compound, the “Plant response rating Johnsongrass” value (Johnson grass; Rate 250 g/ha) was 70, the “Plant response rating, Green foxtail” value (Green foxtail) was 100 and the “Plant response rating, Purple nutsedge” value (purple nutsedge; [1]) was 0. For the same compound, the “Plant response rating, Purple nutsedge” value (purple nutsedge; [2]) was 0, the “Purple nutsedge plant response rating” value (purple nutsedge; [3]) was 0 and the “Purple nutsedge plant response rating” value (purple nutsedge; [4]) was 10. The “Plant response rating, Purple nutsedge” value (purple nutsedge; Rate 250 g/ha) was 20, the “Plant response rating, C. ragweed” value (common ragweed; [1]) was 0 and the “Plant response rating, C. ragweed” value (common ragweed; [2]) was 0. For the same compound, the “C. ragweed plant response rating” value (common ragweed; [3]) was 30, the “Plant response rating, C. ragweed” value (common ragweed; [4]) was 30 and the “Plant response rating, C. ragweed” value (common ragweed; Rate 250 g/ha) was 30.
